Data taken from PubChem BioAssay AID1259411 (Chemical Carcinogenesis Research Information System (CCRIS), 2018).
The source made the active and inactive calls. The rule behind the calls is not given here.

Tested on: rodent carcinogenicity bioassays, tumor incidence
Assay: CCRIS carcinogenicity studies
Description: The CCRIS database contains chemical records with carcinogenicity, mutagenicity, tumor promotion, and tumor inhibition test results. It was developed by the National Cancer Institute (NCI). Data are derived from studies cited in primary journals, current awareness tools, NCI reports, and other sources. Test results have been reviewed by experts in carcinogenesis and mutagenesis.
CCRIS provides historical information from the years 1985 - 2011. It is no longer updated.
This is an archive assay for CCRIS carcinogenicity studies.

For `CC(=O)OC/C=C(C)/C=C/C=C(C)/C=C/C1=C(C)CCCC1(C)C`, the carcinogen call (Species: RAT, Strain/Sex: F344/FEMALE, Route: ORAL, Dose: 0, 0.125, 0.25% IN DRINKING WATER (TOTAL DOSE: 0; 50; 95 G/KG) FOR 104 WK (STUDY DURATION: 108 WK), Dose: 0, 0.125, 0.25% IN DRINKING WATER (TOTAL DOSE: 0; 50; 95 G/KG) FOR 104 WK (STUDY DURATION: 108 WK), Tumor Site: Type of Lesion: ADRENAL GLAND: MALIGNANT OR BENIGN PHEOCHROMOCYTOMA, BENIGN PHEOCHROMOCYTOMA, BILATERAL LESIONS, CLITORAL GLAND: ADENOMA) was “active; positive” and the carcinogen call (Species: RAT, Strain/Sex: F344/MALE, Route: ORAL, Dose: 0, 0.125, 0.25% IN DRINKING WATER (TOTAL DOSE: 0; 50; 95 G/KG) FOR 104 WK (STUDY DURATION: 108 WK), Dose: 0, 0.125, 0.25% IN DRINKING WATER (TOTAL DOSE: 0; 50; 95 G/KG) FOR 104 WK (STUDY DURATION: 108 WK), Tumor Site: Type of Lesion: ADRENAL GLAND: MALIGNANT PHEOCHROMOCYTOMA, BENIGN PHEOCHROMOCYTOMA, BILATERAL LESIONS) was “active; positive”.

`Cc1cc(N)ccc1N` was tested, and the carcinogen call (Species: MOUSE, Strain/Sex: B6C3F1/FEMALE, Route: ORAL, Dose: 0, 0.06, 0.1% OF DIET, TWA, Dose: 0, 0.06, 0.1% OF DIET, TWA) was “inactive; negative”, the carcinogen call (Species: MOUSE, Strain/Sex: B6C3F1/MALE, Route: ORAL, Dose: 0, 0.06, 0.1% OF DIET, TWA, Dose: 0, 0.06, 0.1% OF DIET, TWA) was “inactive; negative” and the carcinogen call (Species: RAT, Strain/Sex: F344/FEMALE, Route: ORAL, Dose: 0, 0.06, 0.2% OF DIET, TWA, Dose: 0, 0.06, 0.2% OF DIET, TWA) was “inactive; negative”. The carcinogen call (Species: RAT, Strain/Sex: F344/MALE, Route: ORAL, Dose: 0, 0.06, 0.2% OF DIET, TWA, Dose: 0, 0.06, 0.2% OF DIET, TWA) was “inactive; negative”.

For `O=[N+]([O-])c1cccc2cccnc12`, the carcinogen call (Species: RAT, Strain/Sex: F344/MALE,FEMALE, Route: ORAL, Dose: 0.1% IN DIET FOR 2 YR, Tumor Site: Type of Lesion: FORESTOMACH: SQUAMOUS CELL PAPILLOMA, CARCINOMA) was “active; positive”.

For `OCc1ccn2c1[C@H](O)CC2`, the carcinogen call (Species: MOUSE, Strain/Sex: SWISS/FEMALE, Route: DERMAL/SUBCUTANEOUS, Dose: 0, 20 MG/KG IN 0.2 ML ACETONE TO SHAVED MID-BACK REGION AND 0, 20 MG/KG IN 0.1 ML PHOSPHATE BUFFER TO INTERSCAPULAR REGI, Dose: 0, 20 MG/KG IN 0.2 ML ACETONE TO SHAVED MID-BACK REGION AND 0, 20 MG/KG IN 0.1 ML PHOSPHATE BUFFER TO INTERSCAPULAR REGI, Tumor Site: Type of Lesion: SKIN: BASAL CELL CARCINOMA) was “active; positive”, the carcinogen call (Species: MOUSE, Strain/Sex: SWISS/FEMALE, Route: DERMAL, Dose: 0, 20 MG/KG IN 0.2 ML ACETONE 1/WK FOR 4 WK AFTER 6 MO ANIMALS WITHOUT TUMORS TREATED AGAIN 1/WK FOR 2 WK (STUDY DURATIO, Tumor Site: Type of Lesion: SKIN: BASAL CELL CARCINOMA) was “active; positive” and the carcinogen call (Species: MOUSE, Strain/Sex: SWISS/FEMALE, Route: SUBCUTANEOUS, Dose: 0, 20 MG/KG IN 0.1 ML PHOSPHATE BUFFER 1/WK FOR 4 WK AFTER 6 MO ANIMALS WITHOUT TUMORS TREATED AGAIN 1/WK FOR 2 WK (STUD, Tumor Site: Type of Lesion: SKIN: BASAL CELL CARCINOMA) was “active; positive”.

In the case of `CC1=CC(C)(C)Nc2ccccc21`, the carcinogen call (Species: MOUSE, Strain/Sex: B6C3F1/FEMALE, Route: DERMAL, Dose: 0, 3.6, 6, 10 MG/KG BW IN ACETONE 5 D/WK FOR 103 WK (STUDY DURATION: 103 WK), Dose: 0, 3.6, 6, 10 MG/KG BW IN ACETONE 5 D/WK FOR 103 WK (STUDY DURATION: 103 WK)) is reported as “inactive; negative”, the carcinogen call (Species: MOUSE, Strain/Sex: B6C3F1/MALE, Route: DERMAL, Dose: 0, 3.6, 6, 10 MG/KG BW IN ACETONE 5 D/WK FOR 103 WK (STUDY DURATION: 103 WK), Dose: 0, 3.6, 6, 10 MG/KG BW IN ACETONE 5 D/WK FOR 103 WK (STUDY DURATION: 103 WK)) is reported as “inactive; negative” and the carcinogen call (Species: RAT, Strain/Sex: F344/FEMALE, Route: DERMAL, Dose: 0, 36, 60, 100 MG/KG BW IN ACETONE 5 D/WK FOR 104 WK (STUDY DURATION: 106 WK), Dose: 0, 36, 60, 100 MG/KG BW IN ACETONE 5 D/WK FOR 104 WK (STUDY DURATION: 106 WK)) is reported as “inactive; negative”. The carcinogen call (Species: RAT, Strain/Sex: F344/MALE, Route: DERMAL, Dose: 0, 36, 60, 100 MG/KG BW IN ACETONE 5 D/WK FOR 103 WK (STUDY DURATION: 105 WK), Dose: 0, 36, 60, 100 MG/KG BW IN ACETONE 5 D/WK FOR 103 WK (STUDY DURATION: 105 WK), Tumor Site: Type of Lesion: KIDNEY(RENAL TUBULE): ADENOMA OR CARCINOMA) was “active; positive”.

With `CCCCOC(=O)[C@@H](C)Oc1ccc(Oc2ccc(C(F)(F)F)cn2)cc1` the carcinogen call (Species: Hamster, Strain/Sex: Syrian golden/Female (51/Group), Route: Oral, Dose: 0, 200, 750, 3000 ppm of 91.6% fluazifop-o-butyl (0; 10.6; 40; 158 mg/kg/day) in diet for 81-83 wks, study duration 83 w, Dose: 0, 200, 750, 3000 ppm of 91.6% fluazifop-o-butyl (0; 10.6; 40; 158 mg/kg/day) in diet for 81-83 wks, study duration 83 w) was “inactive; negative”, the carcinogen call (Species: Hamster, Strain/Sex: Syrian golden/Male (51/Group), Route: Oral, Dose: 0, 200, 750, 3000 ppm of 91.6% fluazifop-o-butyl (0; 11.1; 42; 174 mg/kg/day) in diet for 81-83 wks, study duration 83 w, Dose: 0, 200, 750, 3000 ppm of 91.6% fluazifop-o-butyl (0; 11.1; 42; 174 mg/kg/day) in diet for 81-83 wks, study duration 83 w) was “inactive; negative” and the carcinogen call (Species: Rat, Strain/Sex: Wistar/Female (60/Group), Route: Oral, Dose: 0, 2, 10, 80, 250 ppm of 94.8% fluazifop-o-butyl (0; 0.11; 0.53; 4.3; 13.4 mg/kg/day) in diet for 2 yrs, study duration, Dose: 0, 2, 10, 80, 250 ppm of 94.8% fluazifop-o-butyl (0; 0.11; 0.53; 4.3; 13.4 mg/kg/day) in diet for 2 yrs, study duration) was “inactive; negative”. The carcinogen call (Species: Rat, Strain/Sex: Wistar/Male (60/Group), Route: Oral, Dose: 0, 2, 10, 80, 250 ppm of 94.8% fluazifop-o-butyl (0; 0.08; 0.41; 3.3; 10.2 mg/kg/day) in diet for 2 yrs, study duration, Dose: 0, 2, 10, 80, 250 ppm of 94.8% fluazifop-o-butyl (0; 0.08; 0.41; 3.3; 10.2 mg/kg/day) in diet for 2 yrs, study duration) was “inactive; negative”.

`OCC(Cl)(Cl)Cl` was tested, and the carcinogen call (Species: MOUSE, Strain/Sex: B6C3F1/FEMALE, Route: INTRAPERITONEAL, Dose: 0, 1000 NMOL TOTAL DOSE, 1/3 AND 2/3 OF THE TOTAL DOSE ADMINISTERED AT 8 AND 15 DAYS OF AGE RESPECTIVELY, ANIMALS TERMIN) was “inactive; negative”, the carcinogen call (Species: MOUSE, Strain/Sex: B6C3F1/FEMALE, Route: INTRAPERITONEAL, Dose: 0, 2000 NMOL TOTAL DOSE, 3/7 AND 4/7 OF THE TOTAL DOSE ADMINISTERED AT 8 AND 15 DAYS OF AGE RESPECTIVELY, ANIMALS TERMIN) was “inactive; negative” and the carcinogen call (Species: MOUSE, Strain/Sex: B6C3F1/MALE, Route: INTRAPERITONEAL, Dose: 0, 1000 NMOL TOTAL DOSE, 1/3 AND 2/3 OF THE TOTAL DOSE ADMINISTERED AT 8 AND 15 DAYS OF AGE RESPECTIVELY, ANIMALS TERMIN) was “inactive; negative”. The carcinogen call (Species: MOUSE, Strain/Sex: B6C3F1/MALE, Route: INTRAPERITONEAL, Dose: 0, 2000 NMOL TOTAL DOSE, 3/7 AND 4/7 OF THE TOTAL DOSE ADMINISTERED AT 8 AND 15 DAYS OF AGE RESPECTIVELY, ANIMALS TERMIN) was “inactive; negative”.

`O=NN1CCOC(O)C1` (configuration not stated) was tested, and the carcinogen call (Species: MOUSE, Strain/Sex: STRAIN-A/FEMALE, Route: ORAL, Dose: 0, 0.2 UMOL/ML IN DRINKING WATER FOR 10 WK (TOTAL DOSE: 0; 53 UMOL) FOLLOWED BY TAP WATER FOR 20 WK (STUDY DURATION: 30, Dose: 0, 0.2 UMOL/ML IN DRINKING WATER FOR 10 WK (TOTAL DOSE: 0; 53 UMOL) FOLLOWED BY TAP WATER FOR 20 WK (STUDY DURATION: 30, Tumor Site: Type of Lesion: LUNG: TUMORS) was “active; positive”, the carcinogen call (Species: RAT, Strain/Sex: F344/FEMALE, Route: GAVAGE, Dose: 0, 22 MG/WK FOR A TOTAL DOSE OF 8.5 MMOL (STUDY DYRATION: 110 WK), Tumor Site: Type of Lesion: LIVER: TUMOR, LUNG: TUMOR) was “active; positive” and the carcinogen call (Species: RAT, Strain/Sex: F344/FEMALE, Route: ORAL, Dose: 0, 15, 30 MG/L IN DRINKING WATER 5 D/WK FOR 50 WK (TOTAL DOSE: 0; 0.6; 1.2 MMOL) (STUDY DURATION: 124 WK), Dose: 0, 15, 30 MG/L IN DRINKING WATER 5 D/WK FOR 50 WK (TOTAL DOSE: 0; 0.6; 1.2 MMOL) (STUDY DURATION: 124 WK)) was “inactive; negative”.

In the case of `N#[N+]c1ccc(CO)cc1`, the carcinogen call (Species: MOUSE, Strain/Sex: SWISS/FEMALE, Route: SUBCUTANEOUS, Dose: 0, 50 UG/G BW IN 0.01 ML 0.9% SALINE 1/WK FOR 26 WK (STUDY DURATION: 140 WK), Tumor Site: Type of Lesion: SUBCUTIS: TUMOR, SKIN: TUMOR) is reported as “active; positive” and the carcinogen call (Species: MOUSE, Strain/Sex: SWISS/MALE, Route: SUBCUTANEOUS, Dose: 0, 50 UG/G BW IN 0.01 ML 0.9% SALINE 1/WK FOR 26 WK (STUDY DURATION: 140 WK), Tumor Site: Type of Lesion: SUBCUTIS: TUMOR, SKIN: TUMOR) is reported as “active; positive”.
